{"source": "patent US7638538B1", "about": "“Pharmaceutically active sulfonyl amino acid derivatives” (Laboratoires Serono S.A., priority 1999, dated 2009)", "assay_type_in_all_cases": "biochemical", "key": {"p38": {"target": "p38 (Homo sapiens, UniProt Q16539)", "sequence (Q16539 whole entry)": "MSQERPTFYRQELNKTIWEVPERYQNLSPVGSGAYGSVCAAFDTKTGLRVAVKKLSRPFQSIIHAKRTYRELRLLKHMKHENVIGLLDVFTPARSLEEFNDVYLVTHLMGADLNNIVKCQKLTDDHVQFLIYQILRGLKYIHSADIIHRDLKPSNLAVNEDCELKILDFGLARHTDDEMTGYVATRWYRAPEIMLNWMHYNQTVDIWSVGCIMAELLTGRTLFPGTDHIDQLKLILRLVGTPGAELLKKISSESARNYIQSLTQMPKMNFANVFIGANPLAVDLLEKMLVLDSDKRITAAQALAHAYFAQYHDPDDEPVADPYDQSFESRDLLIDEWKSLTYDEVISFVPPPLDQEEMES", "assay": "p38 in vitro kinase assay (SPA, GST-ATF2 substrate)", "description": "(§1) JNK 2 and 3 in vitro assays: JNK 2 and/or 3 assays are performed 96 well MTT plates, by incubation of 0.5 μg of recombinant, pre-activated GST-JNK2 with 1 μg of recombinant, biotinylated GST-c-Jun and 2 μM ^33γ-ATP (2 nCi/μl), in the presence or absence of sulfonyl amino acid inhibitors and in a reaction volume of 150 μl containing 50 mM Tris-HCl, pH 8.0; 10 mM MgCl2; 1 mM Dithiothreitol, and 100 μM NaVO4. The incubation is carried for 120 min. at R.T and stopped up by addition of 200 μl of a solution containing 250 μg of Streptavidine-coated SPA beads (Amersham, Inc.)*, 5 mM EDTA, 0.1% Trinton X-100 and 50 μM ATP, in phosphate saline buffer. After incubation for 60 minutes at RT, beads are sedimented by centrifugation at 1500×g for 5 minutes, resuspended in 200 μl of PBS containing 5 mM EDTA, 0.1% Triton X-100 and 50 μM ATP and the radioactivity measured in a scintillation β counter, following sedimentation of the beads as described above. By substituting GST-c-Jun for biotinylated GST-1ATF2 or myelin basic protein, this assay can be used to measure inhibition of preactivated p38 and ERK MAP Kinases, respectively."}, "ERK2": {"target": "ERK2 (Homo sapiens, UniProt P28482)", "sequence (P28482 whole entry, species assumed)": "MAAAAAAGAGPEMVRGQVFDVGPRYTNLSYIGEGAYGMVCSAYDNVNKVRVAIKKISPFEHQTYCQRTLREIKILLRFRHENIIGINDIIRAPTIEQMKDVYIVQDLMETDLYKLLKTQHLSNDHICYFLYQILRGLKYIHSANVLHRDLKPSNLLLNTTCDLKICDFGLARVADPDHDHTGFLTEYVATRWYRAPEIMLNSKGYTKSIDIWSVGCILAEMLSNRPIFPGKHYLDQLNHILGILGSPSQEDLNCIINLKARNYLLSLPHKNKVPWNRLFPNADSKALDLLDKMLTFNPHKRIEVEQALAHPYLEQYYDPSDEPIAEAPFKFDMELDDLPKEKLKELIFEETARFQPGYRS", "assay": "ERK2 in vitro kinase assay (SPA, myelin basic protein substrate)", "description": "as §1"}, "JNK3": {"target": "JNK3 (Homo sapiens, UniProt P53779)", "sequence (P53779 whole entry, species assumed)": "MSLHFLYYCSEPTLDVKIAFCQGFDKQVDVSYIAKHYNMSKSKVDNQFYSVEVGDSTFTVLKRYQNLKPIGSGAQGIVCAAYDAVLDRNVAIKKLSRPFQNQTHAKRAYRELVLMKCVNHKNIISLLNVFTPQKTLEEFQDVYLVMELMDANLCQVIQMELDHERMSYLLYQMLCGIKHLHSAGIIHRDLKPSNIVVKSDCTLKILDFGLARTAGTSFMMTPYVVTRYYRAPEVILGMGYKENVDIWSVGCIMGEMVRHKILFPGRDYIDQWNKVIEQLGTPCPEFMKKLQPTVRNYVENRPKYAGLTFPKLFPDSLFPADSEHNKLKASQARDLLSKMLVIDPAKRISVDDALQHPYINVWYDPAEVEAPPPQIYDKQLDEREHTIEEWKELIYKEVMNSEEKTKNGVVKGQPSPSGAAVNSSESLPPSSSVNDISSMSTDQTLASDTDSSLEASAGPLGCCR", "assay": "JNK3 in vitro kinase assay (SPA, GST-c-Jun substrate)", "description": "as §1"}, "GST-JNK2": {"target": "GST-JNK2 (Homo sapiens, UniProt P45984)", "sequence (P45984 whole entry)": "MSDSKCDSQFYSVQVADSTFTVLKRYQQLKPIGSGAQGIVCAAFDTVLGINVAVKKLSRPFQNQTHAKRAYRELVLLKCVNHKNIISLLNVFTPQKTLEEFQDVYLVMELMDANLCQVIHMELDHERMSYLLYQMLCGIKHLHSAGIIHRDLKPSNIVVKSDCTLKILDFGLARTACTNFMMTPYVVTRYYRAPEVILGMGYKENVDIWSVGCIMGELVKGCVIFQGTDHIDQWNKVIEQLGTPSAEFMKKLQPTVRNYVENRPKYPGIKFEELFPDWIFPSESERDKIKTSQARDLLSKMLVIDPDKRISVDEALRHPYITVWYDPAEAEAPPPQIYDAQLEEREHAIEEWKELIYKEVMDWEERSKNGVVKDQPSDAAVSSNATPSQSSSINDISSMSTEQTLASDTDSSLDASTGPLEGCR", "assay": "JNK2 in vitro kinase assay (SPA, GST-c-Jun substrate)", "description": "as §1"}}}
{"compound": "O=C(CNS(=O)(=O)c1ccc(CNC(=O)c2ccc(Cl)cc2)s1)Nc1cccc(S(=O)(=O)C(F)(F)F)c1", "note": "[Example 6, 4-chloro-N-[(5-{[(2-oxo-2-{3-[(trifluoromethyl)sulfonyl]anilino)ethyl)amino]sulfonyl}thien-2-yl)methyl]benzamide]", "values": [{"measurement": "IC50", "setting": "p38", "result": "> 30", "unit": "µM"}, {"measurement": "IC50", "setting": "ERK2", "result": "> 30", "unit": "µM"}, {"measurement": "IC50", "setting": "JNK3", "result": 0.64, "unit": "µM"}, {"measurement": "IC50", "setting": "GST-JNK2", "result": 1.3, "unit": "µM"}]}
{"compound": "O=C(CNS(=O)(=O)c1ccc(CNC(=O)c2ccc(Cl)cc2)s1)NCCNc1ncc(C(F)(F)F)cc1Cl", "note": "[Example 1, 4chloro-N-({5-[({2-[(2-{[3-chloro-5-(trifluoromethyl)pyridin-2-yl]amino}ethyl)amino]-2-oxoethyl}amino)sulfonyl]thien-2-yl}methyl)benzamide]", "values": [{"measurement": "IC50", "setting": "p38", "result": "> 30", "unit": "µM"}, {"measurement": "IC50", "setting": "ERK2", "result": "> 30", "unit": "µM"}, {"measurement": "IC50", "setting": "JNK3", "result": 1.2, "unit": "µM"}, {"measurement": "IC50", "setting": "GST-JNK2", "result": 2.7, "unit": "µM"}]}
